Results published in patent US4882349A, “Pyrrolacetic amides having antiinflammatory activity” (priority 1982, dated 1989).

What was measured:
[1] = tested on: carrageenin-induced oedema; test: carrageenin-induced oedema test (anti-inflammatory activity); assay type: in vivo, albino male Wistar rats
[2] = tested on: phenyl-p-quinone-induced writhing (abdominal contractions); test: phenylquinone-induced writhing test (analgesic activity), compound given 30 min before phenyl-p-quinone; assay type: in vivo, male Wistar rats
How it was run: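 Male Wistar rats (110±5 g), fasted 14 h, received test compounds orally or parenterally in 0.5% CMC/saline vehicle 30 min before 2 ml of 0.36% phenyl-p-quinone in 5% ethanol.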

[3] = tested on: mucus secreted by the respiratory airway; test: antisecretory activity, respiratory mucus secretion; assay type: in vivo, albino male New Zealand rabbits; conditions: vs control group
Protocol: The experiment was carried out in accordance with the method described by Y. Kase (Folia Pharmacol. Jap. 73: 605, 1977) for the purpose of investigating whether or not the compounds under examination determine changes in the volume of the mucus secreted by the respiratory airway. Groups of four albino male New Zealand rabbits (mean weight: 2.5 kg) were used for testing each dose per single group. The animals were anesthetized with urethane (1.1 g/ks b.w.) via the intraperitoneal route and a Y cannula was inserted into the trachea. In order to stimulate mucous secretion a humidifier was connected to the cannula permitting the animals to spontaneously breathe air with 100% humidity at a constant temperature of 39° C. The secreted mucus was collected through another opening in the cannula and measured at three and six hours after administration of the compounds under examination or of the vehicle alone administered in the order of […] (controls). Calculation of the increase or decrease in mucous secretion was based upon the percentage differences between the groups treated with the compounds under examination and the control group. Table VII gives the percentage differences in mucous secretion, and the tested compounds with relative doses and routes of administration.

[4] = tested on: cough provoked by mechanical stimulation of the tracheal bifurcation mucosa; test: antitussive activity, mechanically provoked coughing; assay type: in vivo, albino Guinea-pigs; conditions: 1 h after administration
Protocol: The antitussive effect on albino Guinea-pigs weighing 300 g was evaluated using the method described by Y. Kase (Selected Pharmacological Testing Methods, p.363, Marcel Dekker Inc., New York, 1968). Each dose was tested in a group of animals with a Y cannula inserted into the trachea. In order to provoke coughing, the mucosa of the tracheal bifurcation was mechanically stimulated by insertion of a wild boar's hair through an opening in the cannula, while the other opening was connected to a kymograph to plot the amplitude and/or frequency. The reduction in the number of coughs was evaluated at one hour after administration of the compounds under examination by following the plottings for twenty minutes and comparing the response of the control animals.

[5] = in vivo; conditions: mouse
[6] = in vivo; conditions: rat

In the case of `Cc1ccc(C(=O)c2ccc(CC(=O)NCC(=O)O)n2C)cc1` [Compound 1-c, 1-methyl-5-p-toluoylpyrrole-2-acetamidoacetic acid], the oedema % inhibition ([1]; 25 mg/Kg per os, 2 h) is reported as 38,6%, the oedema % inhibition ([1]; 25 mg/Kg per os, 4 h) is reported as 39,1% and the oedema % inhibition ([1]; 25 mg/Kg per os, 6 h) is reported as 37.2%. It also gave an oedema % inhibition ([1]; 25 mg/Kg per os, 24 h) of 12.1%, an oedema % inhibition ([1]; 25 mg/Kg per os, 48 h) of 0.0% and an oedema % inhibition ([1]; 25 mg/Kg per os, 72 h) of 0.0%. It also gave an oedema % inhibition ([1]; 25 mg/Kg, Table IV (route not given), 2 h) of 40.0%, an oedema % inhibition ([1]; 25 mg/Kg, Table IV (route not given), 4 h) of 44.8% and an oedema % inhibition ([1]; 25 mg/Kg, Table IV (route not given), 6 h) of 45.0%. For the same compound, the oedema % inhibition ([1]; 25 mg/Kg, Table IV (route not given), 24 h) was 9.0%, the oedema % inhibition ([1]; 25 mg/Kg, Table IV (route not given), 48 h) was 0.0% and the oedema % inhibition ([1]; 25 mg/Kg, Table IV (route not given), 72 h) was 0.0%. For the same compound, the oedema % inhibition ([1]; 50 mg/Kg per os, 2 h) was 51.8%, the oedema % inhibition ([1]; 50 mg/Kg per os, 4 h) was 58.9% and the oedema % inhibition ([1]; 50 mg/Kg per os, 6 h) was 60.4%. It also gave an oedema % inhibition ([1]; 50 mg/Kg per os, 24 h) of 18.7%, an oedema % inhibition ([1]; 50 mg/Kg per os, 48 h) of 0.0% and an oedema % inhibition ([1]; 50 mg/Kg per os, 72 h) of 0.0%. It also gave an oedema % inhibition ([1]; 50 mg/Kg, Table IV (route not given), 2 h) of 55.0%, an oedema % inhibition ([1]; 50 mg/Kg, Table IV (route not given), 4 h) of 64.0% and an oedema % inhibition ([1]; 50 mg/Kg, Table IV (route not given), 6 h) of 65.4%. The oedema % inhibition ([1]; 50 mg/Kg, Table IV (route not given), 24 h) was 20.0%, the oedema % inhibition ([1]; 50 mg/Kg, Table IV (route not given), 48 h) was 8.0% and the oedema % inhibition ([1]; 50 mg/Kg, Table IV (route not given), 72 h) was 0.0%. It also gave an oedema % inhibition ([1]; 100 mg/Kg per os, 2 h) of 69.0%, an oedema % inhibition ([1]; 100 mg/Kg per os, 4 h) of 70.1% and an oedema % inhibition ([1]; 100 mg/Kg per os, 6 h) of 67.0%. It also gave an oedema % inhibition ([1]; 100 mg/Kg per os, 24 h) of 26.0%, an oedema % inhibition ([1]; 100 mg/Kg per os, 48 h) of 10.0% and an oedema % inhibition ([1]; 100 mg/Kg per os, 72 h) of 0.0%. The oedema % inhibition ([1]; 100 mg/Kg, Table IV (route not given), 2 h) was 74.8%, the oedema % inhibition ([1]; 100 mg/Kg, Table IV (route not given), 4 h) was 77.5% and the oedema % inhibition ([1]; 100 mg/Kg, Table IV (route not given), 6 h) was 74.0%. The oedema % inhibition ([1]; 100 mg/Kg, Table IV (route not given), 24 h) was 30.4%, the oedema % inhibition ([1]; 100 mg/Kg, Table IV (route not given), 48 h) was 12.0% and the oedema % inhibition ([1]; 100 mg/Kg, Table IV (route not given), 72 h) was 0.0%. For the same compound, the “% Protection” value ([2]; 5 mg/Kg i.p.) was 27.1%, the “% Protection” value ([2]; 5 mg/Kg per os) was 25.3% and the “% Protection” value ([2]; 10 mg/Kg i.p.) was 46.3%. For the same compound, the “% Protection” value ([2]; 10 mg/Kg per os) was 49.0%, the “% Protection” value ([2]; 20 mg/Kg i.p.) was 82.0% and the “% Protection” value ([2]; 20 mg/Kg per os) was 85.1%. For the same compound, the “% difference in mucus secretion” value ([3]; 50 mg/Kg i.p., 3 h) was 0.0%, the “% difference in mucus secretion” value ([3]; 50 mg/Kg i.p., 6 h) was 0.0% and the “% difference in mucus secretion” value ([3]; 50 mg/Kg per os, 3 h) was 0.0%. The “% difference in mucus secretion” value ([3]; 50 mg/Kg per os, 6 h) was “+6%”, the “% difference in mucus secretion” value ([3]; 75 mg/Kg i.p., 3 h) was -12% and the “% difference in mucus secretion” value ([3]; 75 mg/Kg i.p., 6 h) was -7%. For the same compound, the “% difference in mucus secretion” value ([3]; 75 mg/Kg per os, 3 h) was -10%, the “% difference in mucus secretion” value ([3]; 75 mg/Kg per os, 6 h) was -8% and the “% difference in mucus secretion” value ([3]; 100 mg/Kg i.p., 3 h) was -37%. For the same compound, the “% difference in mucus secretion” value ([3]; 100 mg/Kg i.p., 6 h) was -25%, the “% difference in mucus secretion” value ([3]; 100 mg/Kg per os, 3 h) was -35% and the “% difference in mucus secretion” value ([3]; 100 mg/Kg per os, 6 h) was -22%. For the same compound, the “% inhibition, cough amplitude” value ([4]; 50 mg/Kg i.p.) was 10%, the “% inhibition, cough frequency” value ([4]; 50 mg/Kg i.p.) was 25% and the “% inhibition, cough amplitude” value ([4]; 50 mg/Kg per os) was 12%. The “% inhibition, cough frequency” value ([4]; 50 mg/Kg per os) was 20%, the “% inhibition, cough amplitude” value ([4]; 75 mg/Kg i.p.) was 15% and the “% inhibition, cough frequency” value ([4]; 75 mg/Kg i.p.) was 27%. For the same compound, the “% inhibition, cough amplitude” value ([4]; 75 mg/Kg per os) was 20%, the “% inhibition, cough frequency” value ([4]; 75 mg/Kg per os) was 22% and the “% inhibition, cough amplitude” value ([4]; 100 mg/Kg i.p.) was 40%. For the same compound, the “% inhibition, cough frequency” value ([4]; 100 mg/Kg i.p.) was 51%, the “% inhibition, cough amplitude” value ([4]; 100 mg/Kg per os) was 38% and the “% inhibition, cough frequency” value ([4]; 100 mg/Kg per os) was 45%. It also gave an LD50 ([5]; ip) of 700 mg/kg, an LD50 ([5]; po) of 1000 mg/kg and an LD50 ([6]; ip) of 780 mg/kg. The LD50 ([6]; po) was 1300 mg/kg.
